# Assay results: patent US20210388012A1, “METHODS AND COMPOSITIONS FOR PRODRUG FORMS OF SPECTINOMYCIN AND SPECTINAMIDE ANALOGS” (priority 2018, published 2021)
# Where two headings read alike, the source gives them in different places.
# Key:
# M. tuberculosis H37Rv = test: Minimum inhibitory concentration (MIC), microbroth dilution; assay type: cell-based; conditions: Mycobacterium tuberculosis, 168 h; M. tuberculosis H37Rv, 7 days, 37° C.; read-out: MIC (H37Rv)
# [1] = molecular target: Mycobacterium smegmatis 70S bacterial ribosomes; test: Ribosomal inhibition assay (luciferase-based protein synthesis inhibition); assay type: biochemical; conditions: purified M. smegmatis 70S ribosomes, firefly luciferase mRNA
# Description: In vitro activity was also assessed using a ribosomal inhibition assay. Briefly, luciferase-based protein synthesis inhibition assays were performed in translation reaction as described previously (Bruell, et al. Biochemistry. 2008 47 (34), 8828-8839), using purified Mycobacterium smegmatis 70S bacterial ribosomes and firefly luciferase mRNA prepared in vitro using T7 RNA polymerase. IC50 values represent the drug concentration that inhibits luciferase activity by 50%.
# [2] = test system: M. tuberculosis Erdman (TMCC107); test: Murine model of acute TB infection; assay type: in vivo; conditions: BALB/c mice, subcutaneous injection 400 mg/kg daily, 12 consecutive days
# [3] = Single ascending maximum tolerated dose study in rat; assay type: in vivo; conditions: female, Sprague-Dawley, rat, in vivo, iv
# Description: Several compounds were assessed in single ascending maximum tolerated studies. The compounds assessed were 1810; 3408, a prodrug form of compound 1810; 1599, a chloro homologue of compound 1810; and gentamicin, an antimicrobial associated with ototoxicity. The study was carried out in female Sprague-Dawley rats (n=3 per group). All the drug solutions were prepared in water and PLASMA-LYTE A (50:50; […] was obtained from Baxter Healthcare Corporation, Deerfield, Ill.). Each group of rats were fasted overnight with access to water aJ libitum and a fixed volume (2 mL) of drug-containing solution was administered via the jugular vein catheter. Food was withheld for 3 h post dosing. Different phases of the study were classified on five different speeds of i.v, administration; Phase 1: 5 sec, Phase 2: 30 sec, Phase 3: 5 min, Phase 4: 15 min, Phase 5: 30 min. In the first and second phases, a set of predefined dose levels: 10, 25, 50, 75, 100, 150, 300, 350, 400, 450 and 500 mg/kg. Escalation to the next higher dose was conditional upon absence of signs of acute toxicity following the immediate lower dose over a 24 h period. All animals were monitored by visual inspection focused on focus on changes in skin, fur, eyes, and also respiratory, circulatory, autonomic and central nervous systems, along with somatomotor activity and behavior pattern, including tremors, convulsions, salivation, diarrhea, lethargy, sleep and coma. A dose level was deemed an MTD if […] of acute toxicity were observed and that dose was chosen for the second phase of the study where the process was repeated to determine a toxic dose. For third, fourth and fifth phases, dosing solution was infused by a Instech tethering system (Instech Laboratories Inc., Plymouth Meeting, Pa.) where the animal is freely moving within its cage, the catheter connection is held in place by a vascular access harness and a swivel system, and the drug administration is performed via a Harvard Apparatus programmable syringe pump. After dosing, the tether was removed immediately after completion of the infusion and the catheter was flushed with (100 μL) PlasmaLyte A. Surviving animals from the previous dose with no signs of toxicity were re-used in either phases of these studies upon allowing a one day drug washout period.
# [4] = Pharmacokinetic study in rat; assay type: in vivo, Sprague-Dawley rats; conditions: male, Sprague-Dawley, in vivo, iv, 10 mg/kg
# Description: LC-MS Method 1. Quantitative determination of the amount of a disclosed compound present in blood, plasma, or urinary can be determined by LC-MS/MS methods. Briefly, a suitable method involves use of calibrants (0.976, 1.95, 3.91, 7.81, 15.63, 31.25, 62.5, 125, 250, 500, 1000 ng/mL) were in sample matrix (e.g., rat plasma, blood or urine). A separate solution of disclosed compound (independent of calibrants) is used to prepare quality controls. Appropriate volumes of working solutions are added to the sample matrix to yield the final concentrations of 1, 50, 1000 ng/mL. Linearity for calibrants in duplicate is assessed by subjecting the spiked concentrations and the respective peak areas to least-square linear regression analysis with and without intercepts, and a weighted least-square regression (1/x or 1/x^2). The lowest limit of quantitation (LLOQ) in the standard curve measured with acceptable accuracy and precision for a disclosed compound from rat plasma has been previously established as 0.976 ng/mL for a representative compound, 1810. All samples are precipitated by the addition of 4-volumes (100 μL) of IS, 1369 (10 ng/mL) in methanol to a volume (25 μL) of plasma/urine test sample. The samples are vortexed (Fisher scientific, USA) for 30 sec and centrifuged at 10,000×g for 10 min at 4° C. and the supernatants are collected for LC-MS/MS analysis. Chromatographic separation is carried out using a Shimadzu Nexera XR (LC-20ADXR) liquid chromatograph (Shimadzu Corporation, USA) consisting of two pumps, online degasser, system controller and an auto sampler. Mobile phase consisting of a) water with 1.6% nonafluoropentanoic acid and 0.7% formic acid b) 90% acetonitrile with 0.8% nonafluoropentanoic acid and 0.35% formic acid can be used at a flow rate of 0.5 rnLirnin in gradient mode. A Waters® Symmetry ® 3.5μ C8, 50×2.1 mm column (Waters, Milford, Mass.) is used for the separation. Samples (5 μL) are injected on column and the eluate is provided directly to an API 5500 triple quadruple mass spectrometer (Applied Biosystems, Foster City, Calif.) equipped with a turbospray ion source operated in the positive ion mode. The optimized multiple reactions monitoring (MRM) conditions for 3408 (549.2A207.1), 1810 (469.2^207.1) and IS (418.3^207.1) are monitored with a declustering potential of 45 V and collision energy of 25 eV. Data are acquired and processed with Analyst software version 1.6.2 (Applied Biosystems, Foster City, Calif.).
# Pharmacokinetic assessment of the disclosed compounds can be determined in a rat model as described herein. Briefly, catheterized male Sprague-Dawley rats from Harlan Bioscience (Indianapolis, Ind.), weighing 200-250 g, are kept at a 12 h light/dark cycle with access to food and water ad libitum. The procedures are approved by the Institutional Animal Care and Use Committee of the University of Tennessee Health Science Center. Formulations of a disclosed compound are prepared in water (50%) and PlasniaLyte A (50%). Test compound can be administered either via intravenous route (10 mg/kg) via femoral vein catheter with the study conducted using a group of 6 rats. Blood (250 μL) was collected via the jugular vein catheter at 0.08, 0.25, 0.5, 0.75, 1, 1.5, 2, 4, 6, 8, 10, 24 and 48 h after drug administration. Plasma was immediately separated by centrifugation (6,000×g for 10 min at 4° C.) and stored at −70° C. until analysis. The plasma concentration was determined as described herein above in LC-MS Method 1, and plasma concentration-time courses were fitted to a non-compartmental model using Phoenix WinNonlin 7.0 (Certara L. P., Princeton, NJ). Area under the concentration-time profile curve (AUC) was calculated by the log trapezoidal rule by log-linear regression and extrapolated to infinity by addition of the value Ct/λZ, where Ct is the concentration at the last time point, and λZ the terminal slope (determined by linear regression) of the log concentration-time curve. […]
compound,measurement,setting,value
"CN[C@@H]1[C@H](O)[C@H](NC)[C@H]2O[C@]3(O)[C@H](O[C@@H]2[C@H]1O)O[C@H](C)C[C@H]3NC(=O)Cc1ccc(O)cn1 [Compound 1810, 2-(5-hydroxypyridin-2-yl)-N-((2R,4R,4aS,5aR,6S,7S,8R,9S,9aR,10aS)-4a,7,9-trihydroxy-2-methyl-6,8-bis(methylamino)decahydro-2H-benzo[b]pyrano[2,3-e] [1,4]dioxin-4-yl)acetamide]",MIC,M. tuberculosis H37Rv,0.8 µg/mL
same,IC50 (M. smegmatis),[1],0.84 µg/mL
same,"Efficacy in mouse model of acute tuberculosis infection (lung CFU, FIG. 1)",[2],similarly active
same,MTD at 24 h,[3],200 to 350 mg/kg
same,MTD at 24 h,"[3]; female Sprague-Dawley rats, 5 second IV bolus, read-out: MTD",200 mg/kg
same,MTD at 24 h,"[3]; female Sprague-Dawley rats, 30 second IV bolus, read-out: MTD",200 mg/kg
same,MTD at 24 h,"[3]; female Sprague-Dawley rats, 5 minute IV infusion, read-out: MTD",350 mg/kg
same,MTD at 24 h,"[3]; female Sprague-Dawley rats, 15 minute IV infusion, read-out: MTD",> 500 mg/kg
same,AUC,[4],22000 ng·h/mL
same,CL,[4],7.72 mL/min/kg
same,Cmax,[4],47000 ng/mL
same,Vss,[4],0.494 L/kg
same,t½,[4],23.5 min
